Assay results: ChEMBL document CHEMBL4219200, “Beta-sitosterol and its derivatives repress lipopolysaccharide/d-galactosamine-induced acute hepatic injury by inhibiting the oxidation and inflammation in mice” (Bioorg Med Chem Lett, 2018)
Activity calls are given as the source filed them. The rule behind the calls is not given here.

Tests used:
[1] = Solubility of the compound in water assessed as volume of solvent required to dissolve 1 g of compound; type: physicochemical; settings: buffer
[2] = test system: L02; experiment: Cytotoxicity against human L02 cells up to 10 uM by MTT assay; type: cell-based
[3] = test system: Mus musculus; experiment: Hepatoprotective activity against lipopolysaccharide/D-galactosamine-induced acute hepatic injury in mouse assessed as increase in survival rate at 50 mg/kg up to 24 hrs; type: functional, organism-based
[4] = test system: Mus musculus; experiment: Hepatoprotective activity against lipopolysaccharide/D-galactosamine-induced acute hepatic injury in mouse assessed as inhibition of LPS/GalN-induced increase in IL-6 level in serum at 12.5 to 50 mg/kg; type: functional, organism-based
[5] = test system: Mus musculus; experiment: Hepatoprotective activity against lipopolysaccharide/D-galactosamine-induced acute hepatic injury in mouse assessed as inhibition of liver cell necrosis at 50 mg/kg up to 24 hrs by microscopic method; type: functional, organism-based
[6] = test system: Mus musculus; experiment: Hepatoprotective activity against lipopolysaccharide/D-galactosamine-induced acute hepatic injury in mouse assessed as restoration of hepatic lobular structure at 50 mg/kg up to 24 hrs by microscopic method; type: functional, organism-based
[7] = test system: Mus musculus; experiment: Hepatoprotective activity against lipopolysaccharide/D-galactosamine-induced acute hepatic injury in mouse assessed as reduction in serum AST level at 50 mg/kg; type: functional, organism-based
[8] = test system: Mus musculus; experiment: Hepatoprotective activity against lipopolysaccharide/D-galactosamine-induced acute hepatic injury in mouse assessed as reduction in serum ALT level at 50 mg/kg; type: functional, organism-based
[9] = test system: Mus musculus; experiment: Hepatoprotective activity against lipopolysaccharide/D-galactosamine-induced acute hepatic injury in mouse assessed as inhibition of LPS/GalN-induced increase in MDA level in liver at 50 mg/kg; type: functional, organism-based
[10] = test system: Mus musculus; experiment: Hepatoprotective activity against lipopolysaccharide/D-galactosamine-induced acute hepatic injury in mouse assessed as inhibition of LPS/GalN-induced decrease in GSH level in liver at 50 mg/kg; type: functional, organism-based
[11] = test system: Mus musculus; experiment: Hepatoprotective activity against lipopolysaccharide/D-galactosamine-induced acute hepatic injury in mouse assessed as inhibition of LPS/GalN-induced decrease in SOD level in liver at 50 mg/kg; type: functional, organism-based
[12] = test system: Mus musculus; experiment: Hepatoprotective activity against lipopolysaccharide/D-galactosamine-induced acute hepatic injury in mouse assessed as inhibition of LPS/GalN-induced decrease in CAT level in liver at 50 mg/kg; type: functional, organism-based
[13] = test system: Mus musculus; experiment: Hepatoprotective activity against lipopolysaccharide/D-galactosamine-induced acute hepatic injury in mouse assessed as inhibition of LPS/GalN-induced increase in TNFalpha level in liver at 12.5 to 50 mg/kg; type: functional, organism-based
[14] = test system: Mus musculus; experiment: Hepatoprotective activity against lipopolysaccharide/D-galactosamine-induced acute hepatic injury in mouse assessed as inhibition of LPS/GalN-induced increase in TNFalpha level in serum at 12.5 to 50 mg/kg; type: functional, organism-based
[15] = test system: Mus musculus; experiment: Hepatoprotective activity against lipopolysaccharide/D-galactosamine-induced acute hepatic injury in mouse assessed as inhibition of LPS/GalN-induced increase in IL-1beta level in liver at 12.5 to 50 mg/kg; type: functional, organism-based
[16] = test system: Mus musculus; experiment: Hepatoprotective activity against lipopolysaccharide/D-galactosamine-induced acute hepatic injury in mouse assessed as inhibition of LPS/GalN-induced increase in IL-1beta level in serum at 12.5 to 50 mg/kg; type: functional, organism-based
[17] = test system: Mus musculus; experiment: Hepatoprotective activity against lipopolysaccharide/D-galactosamine-induced acute hepatic injury in mouse assessed as inhibition of LPS/GalN-induced increase in IL-6 level in liver at 12.5 to 50 mg/kg; type: functional, organism-based
[18] = test system: Mus musculus; experiment: Hepatoprotective activity against lipopolysaccharide/D-galactosamine-induced acute hepatic injury in mouse assessed as decrease in TLR4 protein level in liver at 12.5 to 50 mg/kg by Western blot analysis; type: functional, organism-based
[19] = test system: Mus musculus; experiment: Hepatoprotective activity against lipopolysaccharide/D-galactosamine-induced acute hepatic injury in mouse assessed as decrease in NF-kB protein level in liver at 12.5 to 50 mg/kg by Western blot analysis; type: functional, organism-based
[20] = test system: Mus musculus; experiment: Hepatoprotective activity against lipopolysaccharide/D-galactosamine-induced acute hepatic injury in mouse assessed as increase in IkB protein level in liver at 50 mg/kg by Western blot analysis; type: functional, organism-based
[21] = test system: Mus musculus; experiment: Hepatoprotective activity against lipopolysaccharide/D-galactosamine-induced acute hepatic injury in mouse assessed as increase in Nrf2 protein level in liver at 50 mg/kg by Western blot analysis; type: functional, organism-based
[22] = test system: Mus musculus; experiment: Hepatoprotective activity against lipopolysaccharide/D-galactosamine-induced acute hepatic injury in mouse assessed as increase in HO1 protein level in liver at 50 mg/kg by Western blot analysis; type: functional, organism-based
[23] = test system: Mus musculus; experiment: Hepatoprotective activity against lipopolysaccharide/D-galactosamine-induced acute hepatic injury in mouse assessed as inhibition of TNFalpha mRNA level in liver at 12.5 to 50 mg/kg by RT-PCR analysis; type: functional, organism-based
[24] = test system: Mus musculus; experiment: Hepatoprotective activity against lipopolysaccharide/D-galactosamine-induced acute hepatic injury in mouse assessed as inhibition of Il-1beta mRNA level in liver at 12.5 to 50 mg/kg by RT-PCR analysis; type: functional, organism-based
[25] = test system: Mus musculus; experiment: Hepatoprotective activity against lipopolysaccharide/D-galactosamine-induced acute hepatic injury in mouse assessed as inhibition of NFkB mRNA level in liver at 12.5 to 50 mg/kg by RT-PCR analysis; type: functional, organism-based
[26] = test system: Mus musculus; experiment: Hepatoprotective activity against lipopolysaccharide/D-galactosamine-induced acute hepatic injury in mouse assessed as increase in Nrf2 mRNA level in liver at 12.5 to 50 mg/kg by RT-PCR analysis; type: functional, organism-based

With `CC[C@H](CC[C@@H](C)[C@H]1CC[C@H]2[C@@H]3CC=C4C[C@@H](OC(=O)c5ccco5)CC[C@]4(C)[C@H]3CC[C@]12C)C(C)C` the solubility [1] was 1000 to 10000 mL, the Activity [2] was “Non-Toxic” and the Activity [3] was “Active”.

With `CC[C@H](CC[C@@H](C)[C@H]1CC[C@H]2[C@@H]3CC=C4C[C@@H](O)CC[C@]4(C)[C@H]3CC[C@]12C)C(C)C` [BETA-SITOSTEROL] the solubility [1] was “<= 10000 ml” and the Activity [3] was “Active”.

For `CC[C@H](CC[C@@H](C)[C@H]1CC[C@H]2[C@@H]3CC=C4C[C@@H](OC(=O)c5ccccc5O)CC[C@]4(C)[C@H]3CC[C@]12C)C(C)C`, the solubility [1] was 1000 to 10000 mL, the Activity [2] was “Non-Toxic” and the Activity [3] was “Active”.

In the case of `C/C=C/C=C/C(=O)O[C@H]1CC[C@@]2(C)C(=CC[C@H]3[C@@H]4CC[C@H]([C@H](C)CC[C@@H](CC)C(C)C)[C@@]4(C)CC[C@@H]32)C1`, the solubility [1] is reported as 1000 to 10000 mL, the Activity [2] is reported as “Non-Toxic” and the Activity [3] is reported as “Active”.

For `CC[C@H](CC[C@@H](C)[C@H]1CC[C@H]2[C@@H]3CC=C4C[C@@H](OC(=O)c5ccc6ccccc6c5)CC[C@]4(C)[C@H]3CC[C@]12C)C(C)C`, the solubility [1] was 1000 to 10000 mL, the inhibition [4] was “Active” and the Activity [2] was “Non-Toxic”. The Activity [3] was “Active”, the inhibition [5] was “Active” and the Activity [6] was “Active”. The Activity [7] was “Active”, the Activity [8] was “Active” and the inhibition [9] was “Active”. For the same molecule, the inhibition [10] was “Active”, the inhibition [11] was “Active” and the inhibition [12] was “Active”. For the same molecule, the inhibition [13] was “Active”, the inhibition [14] was “Active” and the inhibition [15] was “Active”. For the same molecule, the inhibition [16] was “Active”, the inhibition [17] was “Active” and the Activity [18] was “Active”. The Activity [19] was “Active”, the Activity [20] was “Active” and the Activity [21] was “Active”. The Activity [22] was “Active”, the inhibition [23] was “Active” and the inhibition [24] was “Active”. For the same molecule, the inhibition [25] was “Active” and the Activity [26] was “Active”.
